From patent US4987129A, “Cephalosporin derivatives” (priority 1987, dated 1991)
Values after ≈ are worked out from the molar mass of the structure shown. Where a name gives a salt, the structure may show the parent alone. Read-outs that look alike come from different tables or passages of the source.

Assays:
Type in all cases: cell-based
[1] = test system: Staphylococcus aureus Smith; experiment: minimum inhibitory concentration (MIC), standard method of Japan Society of Chemotherapy; conditions: Tables 2A, 2B
Description: (§1) The minimum inhibitory concentration (MIC) of the compounds obtained in the above Examples were measured according to the standard method of Japan Society of Chemotherapy.

[2] = test system: Enterobacter cloacae GN7471; experiment: minimum inhibitory concentration (MIC)
Description: as §1

[3] = test system: Citrobacter freundii GN7391; experiment: minimum inhibitory concentration (MIC)
Description: as §1

[4] = test system: Klebsiella pneumoniae 4at521; experiment: minimum inhibitory concentration (MIC); conditions: Tables 2A, 2B
Description: as §1

[5] = test system: Pseudomonas aeruginosa 5D58-1; experiment: minimum inhibitory concentration (MIC); conditions: 5D581, Tables 2A, 2B
Description: as §1

Escherichia coli GN5482 = experiment: minimum inhibitory concentration (MIC); conditions: Tables 2A, 2B
Description: as §1

[6] = test system: Enterobacter cloacae 908RN; experiment: minimum inhibitory concentration (MIC)
Description: as §1

Proteus vulgris GN7919 = experiment: minimum inhibitory concentration (MIC)
Description: as §1

[7] = test system: Pseudomonas aeruginosa 4au542; experiment: minimum inhibitory concentration (MIC); conditions: Tables 2A, 2B
Description: as §1

Escherichia coli ML4704 = experiment: minimum inhibitory concentration (MIC)
Description: as §1

[8] = test system: Staphylococcus aureus IAA498; experiment: minimum inhibitory concentration (MIC); conditions: Tables 2A, 2B
Description: as §1

[9] = test system: Pseudomonas aeruginosa GN10362; experiment: minimum inhibitory concentration (MIC); conditions: Tables 2A, 2B
Description: as §1

[10] = test system: Serratia marcescens GN10857; experiment: minimum inhibitory concentration (MIC); conditions: Tables 2A, 2B
Description: as §1

[11] = test system: Pseudomonas cepacia OF189; experiment: minimum inhibitory concentration (MIC); conditions: Burkholderia cepacia, Tables 2A, 2B
Description: as §1

[12] = test system: Pseudomonas maltophilia OF247; experiment: minimum inhibitory concentration (MIC); conditions: Stenotrophomonas maltophilia, Tables 2A, 2B
Description: as §1

[13] = Enterobacter cloacae GN7471, Tables 2A, 2B, read-out: MIC
[14] = Citrobacter freundii GN7391, Tables 2A, 2B, read-out: MIC
[15] = Enterobacter cloacae 908RN, Tables 2A, 2B, read-out: MIC
[16] = Proteus vulgris GN7919, Tables 2A, 2B, read-out: MIC
[17] = Escherichia coli ML4704, Tables 2A, 2B, read-out: MIC
[18] = Enterobacter cloacae 908RN, Tables 2A, 2B

Structure (SMILES)	MIC [1] [µg/mL]	MIC [2, 13] [µg/mL]	MIC [3, 14] [µg/mL]	MIC [4] [µg/mL]	MIC [5] [µg/mL]	MIC (Escherichia coli GN5482) [µg/mL]	MIC [6, 15] [µg/mL]	MIC (Proteus vulgris GN7919; [16]) [µg/mL]	MIC [7] [µg/mL]	MIC (Escherichia coli ML4704; [17]) [µg/mL]	MIC [8] [µg/mL]	MIC [9] [µg/mL]	MIC [10] [µg/mL]	MIC [6, 18] [µg/mL]	MIC [11] [µg/mL]	MIC [12] [µg/mL]	other results
CON=C(C(=O)NC1C(=O)N2C(C(=O)O)=C(CSc3cc(C)nc4nc(CO)nn34)CSC12)c1csc(N)n1 (stereo not drawn) [Example 17, 7-[2-(2-amino-1,3-thiazol-4-yl)-2-(methoxyimino)acetamido]-3-[(2-hydroxymethyl-5-methyl-s-triazolo[1,5-a]pyrimidin-7-yl)thiomethyl]-3-cephem-4-carboxylic acid.hydrochloride]	0.39	3.13	50	0.39	100	0.1	50	25	100	0.025	12.5	100	12.5	–	–	–	–
Cc1cc(SCC2=C(C(=O)O)N3C(=O)C(NC(=O)C(=NOC(C)(C)C(=O)O)c4csc(N)n4)[C@H]3SC2)n2nc(CO)nc2n1 (stereo partly drawn) [Example 20, 7-[2-(2-amino-1,3-thiazol-4-yl)-2-(1-carboxy-1-methylethoxyimino)acetamido]-3-[(2-hydroxymethyl-5-methyl-s-triazolo[1,5-a]pyrimidin-7-yl)thiomethyl]-3-cephem-4-carboxylic acid]	3.13 (≈ 4.72 µM)	6.25 (≈ 9.42 µM)	> 100	0.78 (≈ 1.18 µM)	6.25 (≈ 9.42 µM)	0.78 (≈ 1.18 µM)	–	3.13 (≈ 4.72 µM)	12.5 (≈ 18.8 µM)	0.39 (≈ 0.588 µM)	6.25 (≈ 9.42 µM)	12.5 (≈ 18.8 µM)	12.5 (≈ 18.8 µM)	100 (≈ 151 µM)	–	–	–
COCc1nc2nc(C)cc(SCC3=C(C(=O)O)N4C(=O)C(NC(=O)C(=NOC(C)(C)C(=O)NNC(=O)c5ccc(O)c(O)c5)c5csc(N)n5)C4SC3)n2n1 (stereo not drawn) [Example 24, 7-{2-[2-amino-1,3-thiazol-4-yl]-2-[1-(3-(3,4-dihydroxybenzoyl)carbazoyl)-1-methylethoxyimino]acetamido}-3-[(2-methoxymethyl-5-methyl-s-triazolo[1,5-a]-pyrimidin-7-yl)thiomethyl]-3-cephem-4-carboxylic acid.hydrochlride]	3.13 (≈ 3.78 µM)	3.13 (≈ 3.78 µM)	12.5 (≈ 15.1 µM)	0.025 (≈ 0.0302 µM)	0.05 (≈ 0.0604 µM)	0.025 (≈ 0.0302 µM)	6.25 (≈ 7.55 µM)	1.56 (≈ 1.88 µM)	0.2 (≈ 0.242 µM)	0.025 (≈ 0.0302 µM)	6.25 (≈ 7.55 µM)	0.05 (≈ 0.0604 µM)	0.39 (≈ 0.471 µM)	–	–	–	–
COCc1nc2nc(C)cc(SCC3=C(C(=O)O)N4C(=O)C(NC(=O)C(=NOC)c5csc(N)n5)C4SC3)n2n1 (stereo not drawn) [Example 26]	0.78 (≈ 1.29 µM)	6.25 (≈ 10.3 µM)	50 (≈ 82.6 µM)	1.56 (≈ 2.58 µM)	100 (≈ 165 µM)	0.39 (≈ 0.644 µM)	50 (≈ 82.6 µM)	25 (≈ 41.3 µM)	> 100	0.05 (≈ 0.0826 µM)	25 (≈ 41.3 µM)	100 (≈ 165 µM)	25 (≈ 41.3 µM)	–	–	–	–
CC(C)(ON=C(C(=O)NC1C(=O)N2C(C(=O)O)=C(CSc3cc(C(=O)O)nc4nc(CO)nn34)CSC12)c1csc(N)n1)C(=O)NNC(=O)c1ccc(O)c(O)c1 (stereo not drawn) [Example 30, 7-{2-[2-amino-1,3-thiazol-4-yl]-2-[1-(3-(3,4-dihydroxybenzoyl)carbazoyl)-1-methylethoxyimino]acetamido}-3-[(5-carboxy-2-hydroxymethyl-s-triazolo[1,5-a]-pyrimidin-7-yl)thiomethyl]-3-cephem-4-carboxylic acid.hydrochlride]	12.5 (≈ 14.8 µM)	0.78 (≈ 0.924 µM)	1.56 (≈ 1.85 µM)	0.025 (≈ 0.0296 µM)	0.1 (≈ 0.119 µM)	0.05 (≈ 0.0593 µM)	1.56 (≈ 1.85 µM)	3.13 (≈ 3.71 µM)	0.2 (≈ 0.237 µM)	0.025 (≈ 0.0296 µM)	25 (≈ 29.6 µM)	0.025 (≈ 0.0296 µM)	0.78 (≈ 0.924 µM)	–	–	–	–
CON=C(C(=O)NC1C(=O)N2C(C(=O)O)=C(CSc3cc(C(=O)O)nc4nc(CO)nn34)CSC12)c1csc(N)n1 (stereo not drawn) [Example 31]	6.25 (≈ 10.1 µM)	6.25 (≈ 10.1 µM)	100 (≈ 161 µM)	0.2 (≈ 0.322 µM)	> 100	0.2 (≈ 0.322 µM)	–	50 (≈ 80.4 µM)	> 100	0.1 (≈ 0.161 µM)	12.5 (≈ 20.1 µM)	100 (≈ 161 µM)	25 (≈ 40.2 µM)	100 (≈ 161 µM)	–	–	–
Cc1nc2nc(CO)cc(SCC3=C(C(=O)[O-])N4C(=O)C(NC(=O)C(=NOC(C)(C)C(=O)NNC(=O)c5ccc(O)c(O)c5)c5csc(N)n5)[C@H]4SC3)n2n1.[Na+] (stereo partly drawn) [Example 37, sodium 7-{2-[2-amino-1,3-thiazol-4-yl]-2-[1-(3-(3,4-dihydroxybenzoyl)carbazoyl)-1-methylethoxyimino]acetamido}-3-[(5-hydroxymethyl-2-methyl-s-triazolo[1,5-a]pyrimidin-7-yl)thiomethyl]-3-cephem-4-carboxylate]	3.13	–	–	0.012	0.1	0.05	–	–	0.2	–	6.25	0.1	0.39	–	0.025	0.39	MIC ([2]; Enterobacter cloacae, GN7471): 1.56 µg/mL; MIC ([3]; Citrobacter freundii, GN7391): 6.25 µg/mL; MIC [6]: 1.56 µg/mL; MIC (Proteus vulgris GN7919): 1.56 µg/mL; MIC (Escherichia coli ML4704; Escherichia coli, ML4704): 0.1 µg/mL
CON=C(C(=O)NC1C(=O)N2C(C(=O)O)=C(CSc3cc(CO)nc4nc(C)nn34)CSC12)c1csc(N)n1 (stereo not drawn) [Example 38]	0.78 (≈ 1.32 µM)	3.13 (≈ 5.29 µM)	25 (≈ 42.3 µM)	0.78 (≈ 1.32 µM)	100 (≈ 169 µM)	0.1 (≈ 0.169 µM)	50 (≈ 84.5 µM)	6.25 (≈ 10.6 µM)	> 100	0.05 (≈ 0.0845 µM)	12.5 (≈ 21.1 µM)	100 (≈ 169 µM)	25 (≈ 42.3 µM)	–	25 (≈ 42.3 µM)	50 (≈ 84.5 µM)	–
CC(C)(ON=C(C(=O)NC1C(=O)N2C(C(=O)[O-])=C(CSc3cc(CO)nc4nc(CO)nn34)CS[C@H]12)c1csc(N)n1)C(=O)NNC(=O)c1ccc(O)c(O)c1.[Na+] (stereo partly drawn) [Example 42, sodium 7-{2-[2-amino-1,3-thiazol-4-yl]-2[1-(3-(3,4-dihydroxybenzoyl)carbazoyl)-1-methylethoxyimino]acetamido}-3-[(2,5-bis(hydroxymethyl)-s-triazolo[1,5-a]pyrimidin-7 yl)thiomethyl]-3-cephem-4-carboxylate]	3.13	–	–	0.2	0.1	0.1	–	–	0.2	–	6.25	0.1	0.39	–	0.025	0.78	MIC ([2]; Enterobacter cloacae, GN7471): 1.56 µg/mL; MIC ([3]; Citrobacter freundii, GN7391): 6.25 µg/mL; MIC [6]: 3.13 µg/mL; MIC (Proteus vulgris GN7919): 3.13 µg/mL; MIC (Escherichia coli ML4704; Escherichia coli, ML4704): 0.1 µg/mL
Cc1cc(SCC2=C(C(=O)O)N3C(=O)C(NC(=O)C(=NOC(C)(C)C(=O)NN)c4csc(N)n4)C3SC2)n2nc(CO)nc2n1 (stereo not drawn) [Example 43, 7-[2-(2-amino-1,3-thiazol-4-yl)-2-(1-carbazoyl-1-methylethoxyimino)acetamido]-3-[(2-hydroxymethyl5-methyl-s-triazolo[1,5-a]pyrimidin-7-yl)thiomethyl]-3-cephem-4-carboxylate.dihydrochloride]	6.25	25	100	3.13	25	0.39	–	50	100	0.2	12.5	25	50	> 100	50	50	–
